Results taken from US8916702B2 (priority 2012, dated 2014).
pEC50: −log10 of the molar value.

Each molecule was assayed on HCV pseudoparticles (genotype 1a HCV E1 and E2 envelope, H77C isolate) (assay: microbe, parasite or virus in culture). Conditions: Hepatitis C virus, Huh-7, 48 h, HCV pseudoparticle infection of Huh7 cells, luciferase 2 days after infection; average of duplicates.
Type: cell-based

SMILES | pEC50
COC(=O)[C@H](CNC(=O)C(=O)NC(C1CC1)C1CC1)NC(=O)c1ccc(Nc2nc(NC3(c4ccc(Cl)cc4)CC3)nc(OCC(F)(F)F)n2)cc1 [Compound 1055] | 8.62
COC(=O)[C@@H](CCNC(=O)C(=O)NCC1(c2ccccc2)CC1)NC(=O)c1ccc(Nc2nc(NC3(c4ccc(Cl)cc4)CC3)nc(OCC(F)(F)F)n2)cc1 [Compound 1378] | 9.64

Same assay, conditions: Hepatitis C virus, Huh-7, 48 h, HCV pseudoparticles (genotype 1a, H77C) in Huh7 cells; average of duplicate; luciferase 2 days after infection

SMILES | pEC50
Cc1ccc(NC(=O)C(=O)N(C)CCCNC(=O)c2ccc(Nc3nc(NC4(c5ccc(Cl)cc5)CC4)nc(OCC(F)(F)F)n3)cc2)cc1 [Compound 3445] | 10.21
CC(O)N1CCN(c2ccc(NC(=O)C(=O)NC[C@H](NC(=O)c3ccc(Nc4nc(NC5(c6ccc(Cl)cc6)CC5)nc(OCC(F)(F)F)n4)cc3)C(=O)O)cc2)CC1 (stereo partly shown) [Compound 3271] | 8.86
CC(CNC(=O)C(=O)NCc1ccc(F)cc1)CNC(=O)c1ccc(Nc2nc(NC3(c4ccc(Cl)cc4)CC3)nc(OCC(F)(F)F)n2)cc1 (stereo not shown) [Compound 3346] | 10.17
CC(C)(CNC(=O)C(=O)Nc1ccc(C(=O)c2ccc(NC(=O)CCCCCNC(=O)CCCC[C@H]3SC[C@@H]4NC(=O)N[C@@H]43)cc2)cc1)CNC(=O)c1ccc(Nc2nc(NC3(c4ccc(Cl)cc4)CC3)nc(OCC(F)(F)F)n2)cc1 [Compound 3558] | 9.59

Same assay, conditions: Hepatitis C virus, Huh-7, 48 h, read-out: Activity (EC50 class), HCV pseudoparticle infection of Huh7 cells, luciferase 2 days after infection; EC50 expressed as class A/B

SMILES | pEC50
CC(C)(CNC(=O)C(=O)Nc1ccc(-c2ccc(C(=O)O)cc2)cc1)CNC(=O)c1ccc(Nc2nc(NC3(c4ccc(Cl)cc4)CC3)nc(OCC(F)(F)F)n2)cc1 [Compound 1542] | 8.00 to 11.00
O=C(NC[C@H](NC(=O)c1ccc(Nc2nc(NC3(c4ccc(Cl)cc4)CC3)nc(OCC(F)(F)F)n2)cc1)C(=O)O)C(=O)NC1CCCC(O)C1 (stereo partly shown) [Compound 1086] | 8.00 to 11.00
Cc1cccc(NC(=O)C(=O)NCC(C)(C)CNC(=O)c2ccc(Nc3nc(NC4(c5ccc(Cl)cc5)CC4)nc(OCC(F)(F)F)n3)cc2)c1 [Compound 1597] | 8.00 to 11.00
CC(C)(C)OC(=O)N1CCC(CNC(=O)C(=O)NCC[C@H](NC(=O)c2ccc(Nc3nc(NC4(c5ccc(Cl)cc5)CC4)nc(OCC(F)(F)F)n3)cc2)C(=O)O)CC1 [Compound 1213] | 8.00 to 11.00
COC(=O)[C@H](CNC(=O)C(=O)NC(C1CC1)C1CC1)NC(=O)c1ccc(Nc2nc(NC3(c4ccc(Cl)cc4)CC3)nc(OCC(F)(F)F)n2)cc1 [Compound 1055] | 8.00 to 11.00
COC(=O)[C@@H](CCNC(=O)C(=O)NCC1(CN2CCCC2)CC1)NC(=O)c1ccc(Nc2nc(NC3(c4ccc(Cl)cc4)CC3)nc(OCC(F)(F)F)n2)cc1 [Compound 1384] | 8.00 to 11.00
CC(C)OC(=O)[C@H](CNC(=O)C(=O)N(C)C)NC(=O)c1ccc(Nc2nc(NC3(c4ccc(Cl)cc4)CC3)nc(OCC(F)(F)F)n2)cc1 [Compound 1021, (S)-isopropyl 2-(4-(4-(1-(4-chlorophenyl)cyclopropylamino)-6-(2,2,2-trifluoroethoxy)-1,3,5-triazin-2-ylamino)benzamido)-3-(2-(dimethylamino)-2-oxoacetamido)propanoate] | 8.00 to 11.00
O=C(NCCc1c[nH]cn1)C(=O)NCC[C@H](NC(=O)c1ccc(Nc2nc(NC3(c4ccc(Cl)cc4)CC3)nc(OCC(F)(F)F)n2)cc1)C(=O)O [Compound 1339] | 8.00 to 11.00
COC(=O)[C@H](CNC(=O)C(=O)Nc1cncn1C)NC(=O)c1ccc(Nc2nc(NC3(c4ccc(Cl)cc4)CC3)nc(OCC(F)(F)F)n2)cc1 [Compound 1247] | 8.00 to 11.00
CC(C)(CNC(=O)C(=O)Nc1ccc(Cc2ccccc2)cc1)CNC(=O)c1ccc(Nc2nc(NC3(c4ccc(Cl)cc4)CC3)nc(OCC(F)(F)F)n2)cc1 [Compound 1579] | 8.00 to 11.00
COC(=O)[C@H](CCNC(=O)C(=O)Nc1cnn(C)c1)NC(=O)c1ccc(Nc2nc(NC3(c4ccc(Cl)cc4)CC3)nc(OCC(F)(F)F)n2)cc1 [Compound 1226] | 8.00 to 11.00
COC(=O)[C@@H](CCNC(=O)C(=O)NCC1(c2ccccc2)CC1)NC(=O)c1ccc(Nc2nc(NC3(c4ccc(Cl)cc4)CC3)nc(OCC(F)(F)F)n2)cc1 [Compound 1378] | 8.00 to 11.00
COC(=O)[C@H](CCNC(=O)C(=O)NCC1(C2CCCCC2)CC1)NC(=O)c1ccc(Nc2nc(NC3(c4ccc(Cl)cc4)CC3)nc(OCC(F)(F)F)n2)cc1 [Compound 1203] | 8.00 to 11.00
COc1ccccc1NC(=O)C(=O)NCC[C@H](NC(=O)c1ccc(Nc2nc(NC3(c4ccc(Cl)cc4)CC3)nc(OCC(F)(F)F)n2)cc1)C(=O)O [Compound 1276] | 8.00 to 11.00
O=C(NCCc1cccnc1)C(=O)NC[C@H](NC(=O)c1ccc(Nc2nc(NC3(c4ccc(Cl)cc4)CC3)nc(OCC(F)(F)F)n2)cc1)C(=O)O [Compound 1405] | 8.00 to 11.00
CC(C)OC(=O)c1cccc(-c2ccc(NC(=O)C(=O)NCC(C)(C)CNC(=O)c3ccc(Nc4nc(NC5(c6ccc(Cl)cc6)CC5)nc(OCC(F)(F)F)n4)cc3)cc2)c1 [Compound 1491] | 8.00 to 11.00
CC(C)(CNC(=O)C(=O)Nc1cccc(C(=O)O)c1)CNC(=O)c1ccc(Nc2nc(NC3(c4ccc(Cl)cc4)CC3)nc(OCC(F)(F)F)n2)cc1 [Compound 1485] | 8.00 to 11.00
CC1CC(NC(=O)C(=O)NCC[C@H](NC(=O)c2ccc(Nc3nc(NC4(c5ccc(Cl)cc5)CC4)nc(OCC(F)(F)F)n3)cc2)C(=O)O)CC(C)(C)C1 (stereo partly shown) [Compound 1127] | 8.00 to 11.00
COC(=O)[C@H](CCNC(=O)C(=O)NCc1ccc(F)c(F)c1)NC(=O)c1ccc(Nc2nc(NC3(c4ccc(Cl)cc4)CC3)nc(OCC(F)(F)F)n2)cc1 [Compound 1159] | 8.00 to 11.00
CC(C)(C)OC(=O)N1CCC(NC(=O)C(=O)NCC[C@H](NC(=O)c2ccc(Nc3nc(NC4(c5ccc(Cl)cc5)CC4)nc(OCC(F)(F)F)n3)cc2)C(=O)O)CC1 [Compound 1119] | 8.00 to 11.00
CC1CCCC(NC(=O)C(=O)NCC[C@H](NC(=O)c2ccc(Nc3nc(NC4(c5ccc(Cl)cc5)CC4)nc(OCC(F)(F)F)n3)cc2)C(=O)O)C1 (stereo partly shown) [Compound 1125] | 8.00 to 11.00

Same assay, conditions: Hepatitis C virus, Huh-7, 48 h, read-out: Activity (EC50 class), HCV pseudoparticles, Huh7 cells, luciferase 2 days after infection; average of duplicates

SMILES | pEC50
COC(=O)[C@H](CNC(=O)C(=O)Nc1cccc(-c2nc(C)cs2)c1)NC(=O)c1ccc(Nc2nc(NC3(c4ccc(Cl)cc4)CC3)nc(OCC(F)(F)F)n2)cc1 [Compound 3725] | 8.00 to 11.00
CC(C)(CNC(=O)C(=O)Nc1ccc(Cl)c(Cl)c1)CNC(=O)c1ccc(Nc2nc(NC3(c4ccc(Cl)cc4)CC3)nc(OCC(F)(F)F)n2)cc1 [Compound 3793] | 8.00 to 11.00
COC(=O)[C@H](CNC(=O)C(=O)Nc1ccc(C)nc1)NC(=O)c1ccc(Nc2nc(NC3(c4ccc(Cl)cc4)CC3)nc(OCC(F)(F)F)n2)cc1 [Compound 3711] | 8.00 to 11.00
Cn1nnnc1-c1cccc(NC(=O)C(=O)NCC[C@H](NC(=O)c2ccc(Nc3nc(NC4(c5ccc(Cl)cc5)CC4)nc(OCC(F)(F)F)n3)cc2)C(=O)O)c1 [Compound 3655] | 8.00 to 11.00
Cc1ccc(NC(=O)C(=O)NCC(C)(C)CNC(=O)c2ccc(Nc3nc(NC4(c5ccc(Cl)cc5)CC4)nc(OCc4ccccc4)n3)cc2)cc1 [Compound 3843] | 8.00 to 11.00
COC(=O)[C@H](CNC(=O)C(=O)Nc1cccc(OC(F)(F)F)c1)NC(=O)c1ccc(Nc2nc(NC3(c4ccc(Cl)cc4)CC3)nc(OCC(F)(F)F)n2)cc1 [Compound 3693] | 8.00 to 11.00
Cc1ccc(-c2cccc(NC(=O)C(=O)NCC[C@H](NC(=O)c3ccc(Nc4nc(NC5(c6ccc(Cl)cc6)CC5)nc(OCC(F)(F)F)n4)cc3)C(=O)O)c2)cc1 [Compound 3644] | 8.00 to 11.00

Same assay, conditions: Hepatitis C virus, Huh-7, read-out: Activity (EC50 class), HCV pseudoparticles (genotype 1a, H77C) in Huh7 cells; EC50 expressed as class A/B

SMILES | pEC50
CC(C)(CNC(=O)C(=O)Nc1nc2ccccc2s1)CNC(=O)c1ccc(Nc2nc(NC3(c4ccc(Cl)cc4)CC3)nc(OCC(F)(F)F)n2)cc1F [Compound 3568] | 8.00 to 11.00
COCc1ccc(NC(=O)C(=O)NCC[C@H](NC(=O)c2ccc(Nc3nc(NC4(c5ccc(Cl)cc5)CC4)nc(OCC(F)(F)F)n3)cc2)C(=O)O)cc1 [Compound 3543] | 8.00 to 11.00
O=C(NCC[C@H](NC(=O)c1ccc(Nc2nc(NC3(c4ccc(Cl)cc4)CC3)nc(OCC(F)(F)F)n2)cc1)C(=O)O)C(=O)Nc1ccc(N2CCCC2=O)cc1 [Compound 3227] | 8.00 to 11.00
COC(=O)[C@H](CNC(=O)C(=O)Nc1ccc(OCc2ccccc2)cc1)NC(=O)c1ccc(Nc2nc(NC3(c4ccc(Cl)cc4)CC3)nc(OCC(F)(F)F)n2)cc1 [Compound 3090] | 8.00 to 11.00
COC(=O)[C@@H](CCNC(=O)C(=O)Nc1ccc(Oc2ccc(C(C)(C)C)cc2)nc1)NC(=O)c1ccc(Nc2nc(NC3(c4ccc(Cl)cc4)CC3)nc(OCC(F)(F)F)n2)cc1 [Compound 3581] | 8.00 to 11.00
CC(C)(CNC(=O)C(=O)Nc1ccccc1-n1cnnn1)CNC(=O)c1ccc(Nc2nc(NC3(c4ccc(Cl)cc4)CC3)nc(OCC(F)(F)F)n2)cc1 [Compound 3046] | 8.00 to 11.00
Cc1ccc(NC(=O)C(=O)N(C)CCCNC(=O)c2ccc(Nc3nc(NC4(c5ccc(Cl)cc5)CC4)nc(OCC(F)(F)F)n3)cc2)cc1 [Compound 3445] | 8.00 to 11.00
O=C(NCC[C@H](NC(=O)c1ccc(Nc2nc(NC3(c4ccc(Cl)cc4)CC3)nc(OCC(F)(F)F)n2)cc1)C(=O)O)C(=O)Nc1ccc(Oc2ccncc2)cc1 [Compound 3544] | 6.00 to 8.00
CC(C)(CNC(=O)C(=O)Nc1ccc2c(c1)COC2=O)CNC(=O)c1ccc(Nc2nc(NC3(c4ccc(Cl)cc4)CC3)nc(OCC(F)(F)F)n2)cc1 [Compound 3359] | 8.00 to 11.00
Cc1nccn1-c1ccc(NC(=O)C(=O)NC[C@H](NC(=O)c2ccc(Nc3nc(NC4(c5ccc(Cl)cc5)CC4)nc(OCC(F)(F)F)n3)cc2)C(=O)O)cc1 [Compound 3286] | 8.00 to 11.00
COC(=O)[C@H](CNC(=O)C(=O)Nc1ccc(Cn2ccnc2C)cc1)NC(=O)c1ccc(Nc2nc(NC3(c4ccc(Cl)cc4)CC3)nc(OCC(F)(F)F)n2)cc1 [Compound 3204] | 8.00 to 11.00
CC(O)N1CCN(c2ccc(NC(=O)C(=O)NC[C@H](NC(=O)c3ccc(Nc4nc(NC5(c6ccc(Cl)cc6)CC5)nc(OCC(F)(F)F)n4)cc3)C(=O)O)cc2)CC1 (stereo partly shown) [Compound 3271] | 8.00 to 11.00
CC(CNC(=O)C(=O)NCc1ccc(F)cc1)CNC(=O)c1ccc(Nc2nc(NC3(c4ccc(Cl)cc4)CC3)nc(OCC(F)(F)F)n2)cc1 (stereo not shown) [Compound 3346] | 8.00 to 11.00
COC(=O)[C@H](CNC(=O)C(=O)Nc1ccc(-c2nncn2C)cc1)NC(=O)c1ccc(Nc2nc(NC3(c4ccc(Cl)cc4)CC3)nc(OCC(F)(F)F)n2)cc1 [Compound 3200] | 8.00 to 11.00
CC(C)(CNC(=O)C(=O)Nc1ccc(Cl)cc1)CNC(=O)c1ccc(Nc2nc(NC3(c4ccc(Cl)cc4)CC3)nc(OCC(F)(F)F)n2)cc1F [Compound 3512] | 8.00 to 11.00
COC(=O)/C(CCNC(=O)C(=O)Nc1cccc(C(C)(C)C)c1)=N\C(=O)c1ccc(Nc2nc(NC3(c4ccc(Cl)cc4)CC3)nc(OCC(F)(F)F)n2)cc1 [Compound 3586] | 8.00 to 11.00
CC(C)(CNC(=O)C(=O)Nc1ccc(C(=O)c2ccc(NC(=O)CCCCCNC(=O)CCCC[C@H]3SC[C@@H]4NC(=O)N[C@@H]43)cc2)cc1)CNC(=O)c1ccc(Nc2nc(NC3(c4ccc(Cl)cc4)CC3)nc(OCC(F)(F)F)n2)cc1 [Compound 3558] | 8.00 to 11.00
Cc1ccccc1-c1ccc(NC(=O)C(=O)NCCC(NC(=O)c2ccc(Nc3nc(NC4(c5ccc(Cl)cc5)CC4)nc(OCC(F)(F)F)n3)cc2)C(=O)O)cc1 (stereo not shown) [Compound 3525] | 6.00 to 8.00
